Results taken from article PMC6478823, “A suite of phenotypic assays to ensure pipeline diversity when prioritizing drug-like Cryptosporidium growth inhibitors” (Nature Communications, 2019).
Where two headings read alike, the source gives them in different places.

Experiments:
[1] = tested on: C. parvum; assay: 48 h Cryptosporidium growth inhibition assay; assay type: cell-based, Cryptosporidium parvum; details: compound added 3 h post-infection, read at 48 h
Excerpt: As a first step in developing specific Cryptosporidium mode of action assays, we conducted a series of light microscopy time-lapse and transmission electron microscopy (TEM) time course experiments in order to precisely define C. parvum development within the HCT-8 cell culture system. […] This synchronicity was exploited by modifying a previously developed high-content microscopy assay. These assay modifications enabled the evaluation of several key events within the life cycle: host cell invasion, intracellular replication, host cell egress and establishment of new parasitophorous vacuoles, and sexual differentiation. […] Since the methods all used automated liquid handling, imaging, and image analysis, the assay methods all incorporated nuclear staining to monitor host cell numbers and enable recognition of HCT-8 cell monolayer damage, for example as an artifact from a malfunctioning plate washer or from unanticipated cytotoxicity of the compounds.
Human ileocecal adenocarcinoma (HCT-8) cells were purchased from ATCC (catalog# CCL-244) and cultured in ATCC modified RPMI-1640 medium (Gibco, catalog# A10491–01), supplemented with 10% heat-inactivated fetal bovine serum (Sigma-Aldrich, catalog# 12306C) and 120 U/mL penicillin and 120 μg/mL streptomycin (Gibco, catalog# 15140-122) (culture media). […] For all experiments, HCT-8 cells between passages 9 and 39 were used. C. parvum (Iowa isolate) oocysts were purchased from Bunchgrass Farm (Deary, ID), stored at 4 °C and used within 5 months of collection from an infected calf. To induce excystation, oocysts were first treated with 10 mM hydrochloric acid for 10 min at 37 °C, spun at 14,000×g for 4.5 min at room temperature, treated with 2 mM sodium taurocholate for 10 min at 16 °C, spun as before, and resuspended in culture media for infection.
A modification of a previously reported immunofluorescence assay was used to determine the EC50 and EC90 of compounds[13]. HCT-8 cells were grown to ≥ 90% confluence in 384-well plates (Corning, catalog# 353962) and infected with 5500 oocysts per well after they were induced for excystation as described above. Different concentrations of compounds were added 3 h post-infection and plates were incubated for another 45 h in a 5% CO2 incubator at 37 °C. Wells were then washed 3 times with PBS containing 111 mM D-galactose (PBS-D-gal), fixed with 4% paraformaldehyde (PFA) in PBS for 15 min at room temperature, permeabilized with 0.25% Triton X-100 for 10 min at 37 °C, washed 3 times with PBS with 0.1% Tween 20, and blocked with 4% bovine serum albumin (BSA) in PBS for 2 h at 37 °C or 4 °C overnight. Parasitophorous vacuoles were stained with 1.33 µg/mL of fluorescein-labeled Vicia villosa lectin (Vector Laboratories, catalog# FL-1231) diluted in 1% BSA in PBS with 0.1% Tween 20 for 1 h at 37 °C, followed by addition of Hoechst 33258 (AnaSpec, catalog# AS-83219) at 0.09 mM diluted in water for another 15 min at 37 °C. Wells were then washed 5 times with PBS containing 0.1% Tween 20. A Nikon Eclipse Ti2000 epifluorescence microscope with an automated stage was programmed using NIS-Elements Advanced Research software (Nikon, USA) to focus on the center of each well and take a 3 × 3 or 6 × 6 composite image using an EXi blue fluorescence microscopy camera (QImaging, Canada) with a 20 × objective (NA = 0.45). Nuclei and parasite images were separately exported as.tif files and analyzed using macros developed on the ImageJ platform (National Institutes of Health)[13].

[2] = tested on: C. parvum; assay type: cell-based, Cryptosporidium parvum; details: compound at EC90; for Invasion Assay: Mean % Inhibition (parasites), Average: average of replicates; for Invasion Assay: Mean % Inhibition (parasites), Replicate 1a: single biological replicate 1; for Invasion Assay: Mean % Inhibition (parasites), Replicate 2a: single biological replicate 2; for Sporozoite invasion: yes/no grouping by phenotypic assay result
Method: The first step in infection is host cell invasion, which involves a complex process encompassing oocyst excystation, parasite motility, adhesion, and parasitophorous vacuole formation (Fig. 2a). Our strategy to assay for compounds affecting invasion was simply to expose C. parvum to compounds immediately after triggering excystation and throughout the invasion process, and then enumerate the parasite vacuoles after 3 h, prior to allowing the parasites to replicate (summarized in Fig. 2b).
Fig. 2 Invasion Assay. a Overview of life cycle stage investigated during the invasion assay. Representative TEM images of a C. parvum oocyst and HCT-8 cell shortly after infection (Scale bar = 500 nm). b Schematic of experimental design. […] Each point represents the mean and SD of at least two biological replicates with four technical replicates per experiment.
C. parvum invasion inhibition was measured by modifying the 48 h growth inhibition assay described above. […] In parallel, Iowa strain oocysts were excysted. […] Assay plates were incubated at 37 °C and 5% CO2 for 3 h.

[3] = tested on: C. parvum; assay: Egress, motility, reinvasion assay (PV ratio); details: compound at EC90; for Egress and Reinvasion Assay: Mean PV ratios (19.5h:6h), Average: average of replicates; for Egress and Reinvasion Assay: Mean PV ratios (19.5h:6h), Replicate 1a: single replicate 1; for Egress and Reinvasion Assay: Mean PV ratios (19.5h:6h), Replicate 2a: single replicate 2
Method: For quantification of parasitophorous vacuoles over time, HCT-8 cells were grown to greater than 90% confluence in 384-well plates and infected with 11,000 oocysts after triggering excystation.

[4] = read-out: Regular 3 to 48 h assay in vitro EC90, C. parvum in HCT-8 cells

Structure (SMILES) | EC90 [1, 4] [nM] | Invasion Assay: Mean % Inhibition (parasites), Average [2] [%] | Invasion Assay: Mean % Inhibition (parasites), Replicate 1a [2] [%] | Invasion Assay: Mean % Inhibition (parasites), Replicate 2a [2] [%] | Sporozoite invasion [2] | Egress and Reinvasion Assay: Mean PV ratios (19.5h:6h), Average [3] | Egress and Reinvasion Assay: Mean PV ratios (19.5h:6h), Replicate 1a [3] | Egress and Reinvasion Assay: Mean PV ratios (19.5h:6h), Replicate 2a [3] | Egress and Reinvasion Assay: Mean PV ratios (19.5h:6h), Replicate 3a ([3]; single replicate 3) | Egress and Reinvasion Assay: Mean PV ratios (19.5h:6h), Replicate 4a ([3]; single replicate 4) | EC90 ([1]; Cryptosporidium parvum, HCT-8, read-out: Regular 3 to 48 h assay in vitro EC90, C. parvum in HCT-8 cells) [nM]
Oc1c(C(Nc2ccccn2)c2cccc(Oc3ccccc3)c2)ccc2cccnc12 (stereo not shown) [A-2] | 1340 | -15.19 | -13 | -17 | no | 0.69 | 0.67 | 0.71 | – | – | –
O=C(NC(c1ccccc1)c1ccc2cccnc2c1O)c1ccccc1 (stereo not shown) [A-5] | 4350 | -13.46 | -13 | -14 | no | 0.32 | 0.55 | 0.10 | – | – | –
Oc1c(CN2CCN(c3ccccc3F)CC2)cc(Br)c2cccnc12 [A-6] | 1330 | -20.21 | -18 | -23 | no | 0.79 | 0.65 | 0.93 | – | – | –
CCOc1ccc(Cl)c2c1B(O)OC2CN (stereo not shown) [AN6426] | 19500 | -16.44 | -18 | -15 | – | 0.93 | 1.07 | 1.05 | 0.86 | 0.75 | –
CC(C)c1c(C(=O)Nc2ccccc2)c(-c2ccccc2)c(-c2ccc(F)cc2)n1CC[C@@H](O)C[C@@H](O)CC(=O)O [Atorvastatin] | – | -38.43 | -51 | -26 | – | 1.88 | 1.94 | 1.82 | – | – | 2180
